{
  "source": "patent US7344884B2",
  "about": "“Peptides promoting cell adherence, growth and secretion” (Becton, Dickinson and Company, priority 2001, dated 2008)",
  "note": "“Also recorded” adds a separate entry of the source. Marks after values point to notes of the source that are not given here.",
  "data": [
    {"system": "PDGF secretion by CHO cells producing rPDGF (CRL 9359/CRL9360)", "experiment": "Sandwich ELISA for PDGF in supernatant of CHO cells cultured with test peptide", "format": "cell-based, Chinese Hamster", "conditions": "6 mM peptide in 1A media; day 12 or sooner; 1A media post-culture value subtracted", "method": "(§1) To identify peptides in a particular library which positively affected cell expression and secretion, each test peptide was added to a well containing a monolayer of chinese hamster ovary cells. The selected cells were anchorage-dependent CHO cells known to secrete platelet derived growth factor, which were initially grown on the tissue culture surfaces using a media with serum. After the monolayer was established, a chemically defined base media and a single test peptide were added to each well. In the present work, secretion of PDGF was assessed in the presence and absence of peptides from the library by collecting supernatant from each well and performing an ELISA specific for PDGF on the supernatant. The output was the absorbance at 492 nm. Secretion was evaluated in a basal medium rich in amino acids, the necessary vitamins, metals, carbon source and concensus CHO culture factors. PDGF levels were compared to known standards spiked into the media used for culture.\n(§2) CHO cells are the most widely used animal cell lines in the field of biotechnology for the production of therapeutically important pharmaceuticals (Martin et al, REVIEW, J. of Biotechnology. Progress 1998 14, 807-833). The Chinese Hamster Ovary Cell Lines producing rPDGF (CRL 9359/CRL9360) were obtained from the American Type Culture Collection, 12301 Parklawn Drive, Rockville, Md. 20852. The depositor was Amgen Inc. of Thousand Oaks, Calif. Further details about the cell lines and expressed products can be found in U.S. Pat. No. 5,175,255.\n(§3) Cells were propagated in DMEM/FI2 media with 5% serum at 37° C. between 5-7% CO2. Passages were limited to 5 prior to seeding and PDGF expression was monitored by western blot and ELISA. Cells were routinely seeded at a density of approximately 1×10^4 cells per 20 ml culture media that was placed in a 250 ml canted neck polystyrene tissue culture treated flask (Becton Dickinson). Cells were cultured to confluency and trypsinized to yield cells for seeding.\n(§4) 1A Media was used as a PDGF negative control (pre-culture), to hydrate the 40 ng PDGF standard (pre-culture), to hydrate test peptides (pre-culture) and to normalize all other test and control PDGF results (post-culture). The 1A media was prepared by adding the following components to a 500 ml bottle of DMEM/F12 (GIBCO cat. No. 11330-032): 2.5 ml of a 10 mM NEAA stock (GIBCO Catalog 11140-050); 10 ml of a 200 mM L-glutamine stock (GIBCO Catalog 25030-08); 1 ml of a 50 mg/ml gentamycin sulfate stock (GIBCO Catalog 15750-0601); 150 μl of a 100 μM methotrexate Stock (Sigma Catalog M8407); 0.5 ml of a 7.5 mg/ml insulin Stock (Sigma I-6634); 50 μl of a 1 mg/ml insulin-like growth factor-stock (Long R3 Factor, Sigma Catalog No. I-1271); 2.5 grams of bovine serum albumin (Sigma Catalog No. A-7906); and 0.5 ml of a 7.5 mg/ml holo-transferrin stock (Sigma T-1283).\n(§5) The CHO model cell lines are adherent cultures that have never been adapted to a serum-free environment. Accordingly, media containing serum was used to seed wells. Two formats, Overlay (O) and Wash (W) were used to introduce media containing test peptides to adhered cells.\n(§6) In the O-Format, compounds were gently added on top of the seeding media on the second day. In the O-Format, 9360 cells were seeded at 1,000 cells per 96 well in a 125 μl volume of 1A media with 1.5% serum. 1A media (−serum) containing 12 mM of test peptide was overlaid 2 days later for a final peptide concentration of 6 mM and 0.75% serum. Cell culture supernatant was collected from each test environment on day 10 for later PDGF assay.\n(§7) In the W-Format, compounds were added on day 2 or 3 after the seeding media was removed. In the W-Format, 9359 and 9360 cells were seeded at 6,000 cells per 96 well in a 250 μl volume of DMEM/F12 with 5% serum. Three days later, the seeding media was removed and replaced with 250 μl of 1A media (−serum) containing 6 mM test peptide. Cell culture supernatant was collected on days 5 and 12 for later PDGF assay. […]", "values": [
      {"substance": "16 (FKLVY; Synthetic peptide selected for biological activity) [Peptide 16]", "Normalized Abs at 492 nm (relative PDGF level), MDL-400 Library": 1.38},
      {"substance": "19 (FKKKQ; Synthetic peptide selected for biological activity) [Peptide 19]", "Normalized Abs at 492 nm (relative PDGF level), MDL-400 Library": 0.79},
      {"substance": "22 (FKKKK; Synthetic peptide selected for biological activity) [Peptide 22]", "Normalized Abs at 492 nm (relative PDGF level), MDL-400 Library": 0.59},
      {"substance": "27 (KKPQY; Synthetic peptide selected for biological activity) [Peptide 27]", "Normalized Abs at 492 nm (relative PDGF level), MDL-400 Library": 0.55},
      {"substance": "30 (KNQTY; Synthetic peptide selected for biological activity) [Peptide 30]", "Normalized Abs at 492 nm (relative PDGF level), MDL-400 Library": 0.50},
      {"substance": "31 (FKKKV; Synthetic peptide selected for biological activity) [Peptide 31]", "Normalized Abs at 492 nm (relative PDGF level), MDL-400 Library": 0.49},
      {"substance": "34 (HKNQT; Synthetic peptide selected for biological activity) [Peptide 34]", "Normalized Abs at 492 nm (relative PDGF level), MDL-400 Library": 0.42},
      {"substance": "37 (EKKQT; Synthetic peptide selected for biological activity) [Peptide 37]", "Normalized Abs at 492 nm (relative PDGF level), MDL-400 Library": 0.38},
      {"substance": "38 (EKKKK; Synthetic peptide selected for biological activity) [Peptide 38]", "Normalized Abs at 492 nm (relative PDGF level), MDL-400 Library": 0.37},
      {"substance": "43 (DGKKT; Synthetic peptide selected for biological activity) [Peptide 43]", "Normalized Abs at 492 nm (relative PDGF level), MDL-400 Library": 0.32},
      {"substance": "44 (KKPTT; Synthetic peptide selected for biological activity) [Peptide 44]", "Normalized Abs at 492 nm (relative PDGF level), MDL-400 Library": 0.31},
      {"substance": "46 (FKKMY; Synthetic peptide selected for biological activity) [Peptide 46]", "Normalized Abs at 492 nm (relative PDGF level), MDL-400 Library": 0.28},
      {"substance": "50 (DFFHK; Synthetic peptide selected for biological activity) [Peptide 50]", "Normalized Abs at 492 nm (relative PDGF level), MDL-400 Library": 0.25},
      {"substance": "51 (AKKKK; Synthetic peptide selected for biological activity) [Peptide 51]", "Normalized Abs at 492 nm (relative PDGF level), MDL-400 Library": 0.25},
      {"substance": "53 (AHKKK; Synthetic peptide selected for biological activity) [Peptide 53]", "Normalized Abs at 492 nm (relative PDGF level), MDL-400 Library": 0.22},
      {"substance": "56 (AKKKT; Synthetic peptide selected for biological activity) [Peptide 56]", "Normalized Abs at 492 nm (relative PDGF level), MDL-400 Library": 0.20},
      {"substance": "58 (HNPPY; Synthetic peptide selected for biological activity) [Peptide 58]", "Normalized Abs at 492 nm (relative PDGF level), MDL-400 Library": 0.58},
      {"substance": "60 (AADEG; Synthetic peptide selected for biological activity) [Peptide 60]", "Normalized Abs at 492 nm (relative PDGF level), MDL-400 Library": 0.45},
      {"substance": "63 (HHPST; Synthetic peptide selected for biological activity) [Peptide 63]", "Normalized Abs at 492 nm (relative PDGF level), MDL-400 Library": 0.33},
      {"substance": "65 (ADELN; Synthetic peptide selected for biological activity) [Peptide 65]", "Normalized Abs at 492 nm (relative PDGF level), MDL-400 Library": 0.23},
      {"substance": "AFFFQ (Synthetic peptide selected for biological activity) [SEQ ID NO:12]", "Normalized Abs at 492 nm (relative PDGF level), MDL-400 Library": 0.43},
      {"substance": "EEEMY (Synthetic peptide selected for biological activity) [SEQ ID NO:13]", "Normalized Abs at 492 nm (relative PDGF level), Follow-Up Library": 1.37}
    ]},
    {"system": "PDGF secretion by CHO cells producing rPDGF (CRL 9359/CRL9360)", "experiment": "Sandwich ELISA for PDGF in supernatant of CHO cells cultured with test peptide", "format": "cell-based, Chinese Hamster", "conditions": "library screening", "method": "as §1, §2, §3, §4, §5, §6, §7", "values": [
      {"substance": "FKFIG (Synthetic peptide selected for biological activity) [SEQ ID NO:5]", "effect on PDGF expression/accumulation in CHO cells (result in words)": "positive"},
      {"substance": "KFIFG (Synthetic peptide selected for biological activity) [SEQ ID NO:45]", "effect on PDGF expression/accumulation in CHO cells (result in words)": "positive"}
    ]},
    {"system": "MC3T3 cells", "experiment": "Oxygen biosensor assay of adherence and growth of MC3T3 cells on peptide-coated wells", "format": "cell-based, murine", "conditions": "86 hour time point; single peptide, 50 µl of 1 mM stock dried in well; value normalized to the well's initial reading", "method": "(§8) To identify peptides in a particular library which positively affected cell growth in cell culture, the library was screened in a growth assay. The selected cells were anchorage-dependent MC3T3 cells, which were grown on tissue culture surfaces which had been pre-coated with peptides of the present invention. The screening medium used to evaluate peptides in the library was a low serum medium allowing evaluation of peptide effects with low interference from undefined materials present in the medium. In the present work, growth of MC3T3 cells was assessed in the presence and absence of the peptides in the library which were present in the form of a dried film on a tissue culture substrate. Growth was evaluated in a basal medium rich in amino acids and containing the necessary vitamins, metals and simple carbon source. After an appropriate incubation time, growth of each peptide-supplemented culture is compared to growth of the unsupplemented culture. The extent of growth was evaluated using a Becton Dickinson oxygen sensor to detect oxygen consumption by the cells. The cell number in each well containing a particular peptide was then assessed indirectly with a flurometer which measured fluorescence generated from a fluoroescent dye using band-pass filters of 465 nm for excitation and 590 nm for emission.\n(§9) Briefly, the oxygen biosensor is based upon the fluoroscence of ruthenium dye which is quenched in the presence of oxygen. The dye is immobilized within an inert but highly permeable silicone matrix located at the bottom of microtiter wells. […] (Wodnicka, M., Guarino, R. D., Hemperly, J. J. Temmins, M. R., Stitt, D. and Pitner, J. B. (2000) J. of Biomolecular Screening 5:141-152)\n(§10) MC3T3-E1 is a clonal line of murine calvaria-derived osteoblast (establishement of a clonal osteogenic Cell Line from Newborn Mouse Calvaria in Jpn J. Oral Biol 23, 899 (1981)).\n(§11) MC3T3 cells were maintained in αMEM (GIBCO Catalog No: 12561) supplemented with 2% fetal calf serum (FCS, inactivated) and 100 units or μg/ml of penicillin/streptomycin for one month prior to use. Cells were routinely seeded at a density of approximately 1×10^4 cells per 20 ml culture media which was placed in a 250 ml canted neck polystyrene tissue culture treated flask (Becton Dickinson). Cells were cultured until approximately 2×10^6 cells were obtainable from each flask, which were resuspended in 5 ml of αMEM with 2% FCS for a final cell concentration of about 5×10^4 cells per 150 μl for peptide screening.\n(§12) For determining the biological effects of library peptides and appropriate controls on MC3T3 cells, cells (5×10^4/150 μl) were grown in an 96 well oxygen sensor plate treated as described below:\n(§13) Peptides for screening were obtained from either a MDL-400 library or an MDL-100 library. Fifty microliters of peptides at a 1 mM stock concentration in phosphate buffered saline were placed in wells of a 96 well oxygen sensor plate and dried in a reverse flow air hood overnight […].\n(§14) Vitrogen-collagen-I was obtained from Cohesion (Palo Alto, Calif., Catalog No. FXP-019) and fibronectin was obtained from Sigma (Catalog No. F-0895). All other extracellular matrix (ECM) compounds were obtained from Becton Dickinson Labware, (Bedford, Mass.). Polylysine was obtained from Becton Dickinson Labware and RGDSP-rhodamine was from AnaSpec Inc. (San Jose, Calif.). Extracellular matrix components (ECM) or known peptides were used at the following stock concentrations:\n(§15) Twenty-five microliters of stock concentrations of controls and 25 μl of phosphate buffered saline were placed in wells of a 96 well oxygen sensor plate and dried overnight as described above.\n(§16) Cells grown on 96 well oxygen sensor plates treated as described above were monitored for growth using a Becton Dickinson oxygen biosensor. Growth was monitored at the following time points: 1 hours, 24 hours, 32 hours, 48 hours and 86 hours. Media was changed every three days. […]", "values": [
      {"substance": "FKFIG (Synthetic peptide selected for biological activity) [SEQ ID NO:5]", "Abs at 590 nm (relative oxygen consumption), MDL-400 Library": "2.27*"}
    ]},
    {"system": "MC3T3 cells", "experiment": "Oxygen biosensor assay of adherence and growth of MC3T3 cells on peptide-coated wells", "format": "cell-based, murine", "conditions": "peptide or control adsorbed to surface; compared with uncoated surface or controls", "method": "as §8, §9, §10, §11, §12, §13, §14, §15, §16", "values": [
      {"substance": "FKFIG (Synthetic peptide selected for biological activity) [SEQ ID NO:5]", "impact on MC3T3 growth (result in words)": "positive; also recorded: significant difference in growth"}
    ]},
    {"system": "MC3T3 cells", "experiment": "Oxygen biosensor assay of adherence and growth of MC3T3 cells on peptide-coated wells", "format": "cell-based, murine", "conditions": "peptide or control adsorbed to surface; compared with uncoated surface or controls; listed as FKFIG", "method": "as §8, §9, §10, §11, §12, §13, §14, §15, §16", "values": [
      {"substance": "FKFIG (Synthetic peptide selected for biological activity) [SEQ ID NO:5]", "impact on MC3T3 growth (result in words)": "positive"}
    ]}
  ]
}
